Data as given in patent publication US6706663B2, “Herbicidal 3-heterocyclic substituted benzisothiazole and benzisoxazole compounds” (Wyeth, priority 2000, dated 2004).

Tests used:
[1] = system: GLXMAW (Soybean, Williams); test: Preemergence herbicidal evaluation; assay type: in vivo, Glycine max, (L.) Merr. cv Williams; conditions: Rate 0.0620 kg/ha; rated 4-5 weeks after treatment
Description: (§1) Results of herbicide evaluation are expressed on a rating scale (0-9). The scale is based upon a visual observation of plant stand, vigor, malformation, size, chlorosis and overall plant appearance as compared with a control.
(§2) The preemergence herbicidal activity of the test compounds of the present invention is exemplified by the following tests in which the seeds of a variety of monocotyledonous and dicotyledonous plants are separately mixed with potting soil and planted on top of approximately one inch of soil in separate pint cups. […] The treated cups are then placed on greenhouse benches, watered and cared for in accordance with conventional greenhouse procedures. From four to five weeks after treatment, the tests are terminated and each cup is examined and rated according to the rating system provided in Example 87. The plant species used and the compounds evaluated are the same as those shown in Example 87.

SETVI (Setaria viridis) [2] = test: Preemergence herbicidal evaluation; assay type: in vivo, (L.) Beau; conditions: Rate 0.0620 kg/ha; rated 4-5 weeks after treatment
Description: as §1, §2

[3] = system: ECHCG (Echinochloa crus-galli); test: Preemergence herbicidal evaluation; assay type: in vivo, (L.) Beau; conditions: Rate 0.0620 kg/ha; rated 4-5 weeks after treatment
Description: as §1, §2

[4] = system: ECHCG (Echinochloa crus-galli); test: Postemergence herbicidal evaluation; assay type: in vivo, (L.) Beau; conditions: postemergence
Method: (§3) In the tests, seedling plants are grown in jiffy flats for about two weeks. […] After spraying, the plants are placed on greenhouse benches and are cared for in accordance with conventional greenhouse procedures. From four to five weeks after treatment, the seedling plants are examined and rated according to the rating system set forth below. Where more than one test is involved for a given compound, the data are averaged.
as §1

[5] = system: IPOHE (Ipomoea hederacea); test: Postemergence herbicidal evaluation; assay type: in vivo, (L.) Jacq.; conditions: postemergence
Method: as §3, §1

[6] = system: GLXMAW (Soybean, Williams); test: Postemergence herbicidal evaluation; assay type: in vivo, Glycine max, (L.) Merr. cv Williams; conditions: postemergence
Method: as §3, §1

[7] = system: IPOHE (Ipomoea hederacea); test: Preemergence herbicidal evaluation; assay type: in vivo, (L.) Jacq.; conditions: Rate 0.0620 kg/ha; rated 4-5 weeks after treatment
Description: as §1, §2

[8] = system: MOOVA (Monochoria vaginalis); test: Flooded paddy, preemergence weed control; assay type: in vivo, Presl.; conditions: rated 3-4 weeks after treatment, 0-9 rating scale
Method: as §1
(§4) Preemergence herbicidal activity under flooded paddy conditions is determined as follows: plant seeds or propagating organs are planted in the top 0.5 cm of silt loam soil in 32 oz. plastic containers with a diameter of 10.5 cm and no drainage holes. Water is added to these containers and maintained at 1.5 to 3 cm above the soil surface for the duration of the experiment. […] The treated containers are placed on greenhouse benches and cared for in accordance with conventional greenhouse procedures.

CYPIR (Cyperus iria) = test: Flooded paddy, preemergence weed control; assay type: in vivo; conditions: rated 3-4 weeks after treatment, 0-9 rating scale
Method: as §1, §4

SETVI (Setaria viridis) [9] = test: Postemergence herbicidal evaluation; assay type: in vivo, (L.) Beau; conditions: postemergence
Method: In the tests, seedling plants are grown in jiffy flats for about two weeks. The test compounds are dispersed in 50/50 acetone/water mixtures containing 0.5% TWEEN® 20, a polyoxyethylene sorbitan monolaurate surfactant of Atlas Chemical Industries, in sufficient quantities to provide the equivalent of about 0.0040 kg to 1.000 kg per hectare of active compound when applied to the plants through a spray nozzle operating at 40 psi for a predetermined time. After spraying, the plants are placed on greenhouse benches and are cared for in accordance with conventional greenhouse procedures. From four to five weeks after treatment, the seedling plants are examined and rated according to the rating system set forth below. Where more than one test is involved for a given compound, the data are averaged.
as §1

[10] = system: TRZAWR (Wheat, Winter, cv Riband); test: Preemergence herbicidal evaluation; assay type: in vivo, Triticum aestivum; conditions: Rate 0.0620 kg/ha; rated 4-5 weeks after treatment
Description: as §1, §2

GALAP (Galium aparine) [11] = test: Preemergence herbicidal evaluation; assay type: in vivo; conditions: Rate 0.0620 kg/ha; rated 4-5 weeks after treatment
Description: as §1, §2

[12] = system: TRZAWR (Wheat, Winter, cv Riband); test: Postemergence herbicidal evaluation; assay type: in vivo, Triticum aestivum; conditions: postemergence
Method: as §3, §1

[13] = system: SAGPY (Sagittaria pygmaea); test: Flooded paddy, preemergence weed control; assay type: in vivo, L.; conditions: rated 3-4 weeks after treatment, 0-9 rating scale
Method: as §1, §4

[14] = system: AMBEL (Ambrosia artemisifolia); test: Postemergence herbicidal evaluation; assay type: in vivo, L.; conditions: postemergence
Method: as §3, §1

[15] = system: CHEAL (Chenopodium album); test: Postemergence herbicidal evaluation; assay type: in vivo, L.; conditions: postemergence
Method: as §3, §1

[16] = system: CASOB (Cassia obtusifolia); test: Postemergence herbicidal evaluation; assay type: in vivo, L.; conditions: postemergence
Method: as §3, §1

[17] = system: ABUTH (Abutilon theophrasti); test: Preemergence herbicidal evaluation; assay type: in vivo, Medic.; conditions: Rate 0.0620 kg/ha; rated 4-5 weeks after treatment
Description: as §1, §2

ORYSAT (Rice, Tebonnet) [18] = test: Preemergence herbicidal evaluation; assay type: in vivo, Oryza sativa, (L.) Tebonnet; conditions: Rate 0.0620 kg/ha; rated 4-5 weeks after treatment
Description: as §1, §2

ORYSAT (Rice, Tebonnet) [19] = test: Postemergence herbicidal evaluation; assay type: in vivo, Oryza sativa, (L.) Tebonnet; conditions: postemergence
Method: as §3, §1

ZEAMX (Corn, Field) [20] = test: Postemergence herbicidal evaluation; assay type: in vivo, Zea mays, L.; conditions: postemergence
Method: as §3, §1

[21] = system: AMBEL (Ambrosia artemisifolia); test: Preemergence herbicidal evaluation; assay type: in vivo, L.; conditions: Rate 0.0620 kg/ha; rated 4-5 weeks after treatment
Description: as §1, §2

[22] = system: CHEAL (Chenopodium album); test: Preemergence herbicidal evaluation; assay type: in vivo, L.; conditions: Rate 0.0620 kg/ha; rated 4-5 weeks after treatment
Description: as §1, §2

[23] = system: CASOB (Cassia obtusifolia); test: Preemergence herbicidal evaluation; assay type: in vivo, L.; conditions: Rate 0.0620 kg/ha; rated 4-5 weeks after treatment
Description: as §1, §2

ORYSAT (Rice, Tebonnet) [24] = test: Flooded paddy, post-transplant rice tolerance; assay type: in vivo, Oryza sativa, (L.) Tebonnet; conditions: flooded paddy, post-transplant rice, rated 3-4 weeks after treatment, 0-9 rating scale
Method: as §1
The tolerance of transplanted rice to post-transplanted herbicide application is determined as follows: two ten-day-old rice seedlings (cv. Tebonnet) are transplanted into silt loam soil in 32 oz. plastic containers with a diameter of 10.5 cm and no drainage holes. After transplanting, the containers are flooded and the water level is maintained at 1.5 to 3 cm above the soil surface. […] The treated containers are placed on greenhouse benches, watered such that the water level is maintained as stated above, and cared for in accordance with conventional greenhouse procedures.

ZEAMX (Corn, Field) [25] = test: Preemergence herbicidal evaluation; assay type: in vivo, Zea mays, L.; conditions: Rate 0.0620 kg/ha; rated 4-5 weeks after treatment
Description: as §1, §2

GALAP (Galium aparine) [26] = test: Postemergence herbicidal evaluation; assay type: in vivo; conditions: postemergence
Method: as §3, §1

[27] = system: ABUTH (Abutilon theophrasti); test: Postemergence herbicidal evaluation; assay type: in vivo, Medic.; conditions: postemergence
Method: as §3, §1

[28] = system: ECHORC (Echinochloa oryzoides); test: Flooded paddy, preemergence weed control; assay type: in vivo, Echinochloa oryzoides (Ard.) Fritsch.; conditions: rated 3-4 weeks after treatment, 0-9 rating scale
Method: as §1, §4

C[C@@H]1OC(c2nsc3cc(F)c(-n4c(=O)cc(C(F)(F)F)n(C)c4=O)cc23)O[C@@H]1C (stereo partly drawn) [Compound 63, 3-[3-[(4R,5S)-4,5-dimethyl-1,3-dioxolan-2-yl]-6-fluoro-1,2-benzisothiazol-5-yl]-1-methyl-6-(trifluoromethyl)uracil]
3.0: herbicidal rating, MOOVA ([8]; rate 0.0080 kg/ha) | herbicidal rating, SAGPY ([13]; rate 0.0080 kg/ha)
4.0: herbicidal rating, CYPIR (CYPIR (Cyperus iria); rate 0.0080 kg/ha)
5.0: TRZAWR herbicidal rating ([12]; rate 0.0320 kg/ha) | ORYSAT herbicidal rating (ORYSAT (Rice, Tebonnet) [19]; rate 0.0320 kg/ha)
5.5: ZEAMX herbicidal rating (ZEAMX (Corn, Field) [20]; rate 0.0320 kg/ha)
6.5: GLXMAW herbicidal rating ([6]; rate 0.0320 kg/ha)
9.0: Preemergence herbicidal rating GLXMAW [1] | Preemergence herbicidal rating SETVI (SETVI (Setaria viridis) [2]) | Preemergence herbicidal rating ECHCG [3] | IPOHE herbicidal rating ([5]; rate 0.0320 kg/ha) | IPOHE herbicidal rating ([5]; rate 0.0620 kg/ha) | GLXMAW herbicidal rating ([6]; rate 0.0620 kg/ha) | Preemergence herbicidal rating IPOHE [7] | herbicidal rating, MOOVA ([8]; rate 0.0320 kg/ha) | herbicidal rating, MOOVA ([8]; rate 0.1250 kg/ha) | herbicidal rating, CYPIR (CYPIR (Cyperus iria); rate 0.0320 kg/ha) | herbicidal rating, CYPIR (CYPIR (Cyperus iria); rate 0.1250 kg/ha) | SETVI herbicidal rating (SETVI (Setaria viridis) [9]; rate 0.0620 kg/ha) | Preemergence herbicidal rating GALAP (GALAP (Galium aparine) [11]) | herbicidal rating, SAGPY ([13]; rate 0.1250 kg/ha) | AMBEL herbicidal rating ([14]; rate 0.0320 kg/ha) | AMBEL herbicidal rating ([14]; rate 0.0620 kg/ha) | CHEAL herbicidal rating ([15]; rate 0.0320 kg/ha) | CHEAL herbicidal rating ([15]; rate 0.0620 kg/ha) | CASOB herbicidal rating ([16]; rate 0.0320 kg/ha) | CASOB herbicidal rating ([16]; rate 0.0620 kg/ha) | Preemergence herbicidal rating ABUTH [17] | Preemergence herbicidal rating AMBEL [21] | Preemergence herbicidal rating CHEAL [22] | Preemergence herbicidal rating CASOB [23] | herbicidal rating, ORYSAT (rice tolerance) (ORYSAT (Rice, Tebonnet) [24]; rate 0.0320 kg/ha) | herbicidal rating, ORYSAT (rice tolerance) (ORYSAT (Rice, Tebonnet) [24]; rate 0.1250 kg/ha) | GALAP herbicidal rating (GALAP (Galium aparine) [26]; rate 0.0320 kg/ha) | GALAP herbicidal rating (GALAP (Galium aparine) [26]; rate 0.0620 kg/ha) | ABUTH herbicidal rating ([27]; rate 0.0320 kg/ha) | ABUTH herbicidal rating ([27]; rate 0.0620 kg/ha) | herbicidal rating, ECHORC ([28]; rate 0.0080 kg/ha) | herbicidal rating, ECHORC ([28]; rate 0.0320 kg/ha) | herbicidal rating, ECHORC ([28]; rate 0.1250 kg/ha)
6.0: ECHCG herbicidal rating ([4]; rate 0.0320 kg/ha) | TRZAWR herbicidal rating ([12]; rate 0.0620 kg/ha) | ORYSAT herbicidal rating (ORYSAT (Rice, Tebonnet) [19]; rate 0.0620 kg/ha) | ZEAMX herbicidal rating (ZEAMX (Corn, Field) [20]; rate 0.0620 kg/ha)
8.0: Preemergence herbicidal rating ORYSAT (ORYSAT (Rice, Tebonnet) [18]) | Preemergence herbicidal rating ZEAMX (ZEAMX (Corn, Field) [25])
7.0: ECHCG herbicidal rating ([4]; rate 0.0620 kg/ha) | SETVI herbicidal rating (SETVI (Setaria viridis) [9]; rate 0.0320 kg/ha) | Preemergence herbicidal rating TRZAWR [10] | herbicidal rating, SAGPY ([13]; rate 0.0320 kg/ha) | herbicidal rating, ORYSAT (rice tolerance) (ORYSAT (Rice, Tebonnet) [24]; rate 0.0080 kg/ha)
